This experiment concerns the target T1, α3β4 nAChR (Homo sapiens, UniProt P30926+P32297).
T1 construct: expressed in transfected cells; host or cells: Xenopus laevis oocytes (injected RNA)
Nature of the experiment: Inhibition of α3β4 100 µM ACh-evoked peak currents. Conditions: co-application with 100 µM ACh, peak currents. It is filed as cell-based. The protocol: Although none of the other sulfonium compounds activated neuronal heteromeric receptors, several of them produced inhibition of ACh-evoked responses. Shown in Figure 7A are concentration-response studies for the compounds that were active antagonists of α3β4 nAChR (Table 3). Some compounds were also tested as antagonists of α4β2 subtypes formed with concatamers (Figure 7B).
Figure 7 Inhibition of heteromeric nAChR by sulfonium compounds. (A) Inhibition of α3β4 100 µM ACh-evoked peak currents by the co-application of the sulfonium compounds. Data are the averaged of six to eight oocytes (±SEM). To confirm the stability of the ACh responses, applications of ACh plus the sulfonium compounds were alternated with applications of ACh alone. (B) Inhibition of ACh control peak-current responses of α4-containing nAChR formed with concatamers by 100 µM of the sulfonium compounds indicated. Data are the average of six to eight oocytes (±SEM).
Experiments were conducted using OpusXpress 6000A (Molecular Devices, Union City, CA, USA). Both the voltage and current electrodes were filled with 3 M KCl. Oocytes were voltage-clamped at −60 mV at room temperature (24 °C). The oocytes were bath-perfused with Ringer’s solution (115 mM NaCl, 2.5 mM KCl, 1.8 mM CaCl2, 10 mM HEPES, and 1 μM atropine, pH 7.2) at 2 mL/min for α7 receptors, or 4 mL/min for heteromeric nAChR. To evaluate the effects of experimental compounds, responses were compared to control ACh-evoked responses, defined as the average of two initial applications of ACh made before test applications. ACh control concentrations were 60 µM for α7 receptors; 100 µM for α4(3)β2(2) and α3β4 receptors; 30 µM for α4β2α6β2β3 and muscle-type (αβ1εδ) receptors; and 10 µM for α4(3)β2(2) and α4(2)β2(2)α5 receptors.
Solutions were applied from 96-well plates via disposable tips. Drug applications were 12 s in duration, followed by 181 s washout periods for α7 receptors, or 6 s in duration followed by 301 s washout periods for heteromeric nAChR. The responses were calculated as both peak current amplitudes and net charge, as previously described. Data were collected at 50 Hz, filtered at 20 Hz for α7 receptors or filtered at 5 Hz for heteromeric nAChR, and analyzed by Clampfit (Molecular Devices, San Jose, CA, USA) and Excel (Microsoft, Redmond, WA, USA). Data were expressed as means ± SEM from at least four oocytes for each experiment and plotted with Kaleidagraph 4.5.2 (Abelbeck Software, Reading, PA, USA). Multi-cell averages were calculated for comparisons of complex responses. Averages of the normalized data were calculated for each of the 10,322 points in each of the 206.44 s traces (acquired at 50 Hz), as well as the standard errors for those averages.

The results in this text go back to PMC8464850, “Sulfonium Ligands of the α7 nAChR” (Molecules, 2021).

Counter-ions that a name gives are not always drawn.

T1 sequence (P32297 32-505): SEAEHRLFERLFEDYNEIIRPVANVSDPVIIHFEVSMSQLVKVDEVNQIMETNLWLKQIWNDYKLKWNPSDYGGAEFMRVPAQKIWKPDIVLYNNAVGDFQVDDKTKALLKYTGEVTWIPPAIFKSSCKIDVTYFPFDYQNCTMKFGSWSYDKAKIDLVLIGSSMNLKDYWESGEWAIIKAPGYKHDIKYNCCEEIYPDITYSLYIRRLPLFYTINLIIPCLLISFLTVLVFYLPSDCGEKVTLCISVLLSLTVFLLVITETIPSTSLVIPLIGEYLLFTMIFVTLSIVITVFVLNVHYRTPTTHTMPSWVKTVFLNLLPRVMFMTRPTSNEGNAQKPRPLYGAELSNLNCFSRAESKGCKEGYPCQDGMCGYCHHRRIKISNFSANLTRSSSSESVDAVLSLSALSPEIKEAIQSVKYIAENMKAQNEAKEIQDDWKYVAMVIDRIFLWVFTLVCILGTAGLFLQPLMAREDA
T1 sequence (P30926 22-498): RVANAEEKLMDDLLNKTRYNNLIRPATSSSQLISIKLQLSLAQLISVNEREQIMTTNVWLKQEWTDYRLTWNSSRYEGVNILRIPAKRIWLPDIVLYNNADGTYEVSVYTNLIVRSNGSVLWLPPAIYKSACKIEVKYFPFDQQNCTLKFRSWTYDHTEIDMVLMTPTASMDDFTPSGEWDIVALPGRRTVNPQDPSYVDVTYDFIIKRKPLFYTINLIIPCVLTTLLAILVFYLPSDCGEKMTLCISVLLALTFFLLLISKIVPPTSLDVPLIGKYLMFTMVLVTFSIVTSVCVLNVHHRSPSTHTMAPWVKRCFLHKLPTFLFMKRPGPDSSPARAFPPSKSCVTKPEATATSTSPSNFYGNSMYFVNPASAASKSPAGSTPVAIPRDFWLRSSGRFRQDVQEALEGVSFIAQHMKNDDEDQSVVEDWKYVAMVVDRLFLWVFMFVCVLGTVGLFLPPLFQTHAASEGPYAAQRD

Broadly, the IC50 is the concentration at which inhibition is half-maximal. On to `C[S+](C)c1ccc(O)cc1` [Compound S9, (4-hydroxyphenyl)dimethylsulfonium methyl sulfate], for which the IC50 stood at 124 ± 22 µM.
